Measurements from article PMC13288762 (Frontiers in Medicine, 2026).

Assays:
aortic aneurysm model = test system: aortic aneurysm model; design: method as in PMID 31128093; conditions: 10 mg/kg for 4 weeks; cited from earlier work
[1] = test system: Mdr2−/− mice (model of PSC); test: Ductular reaction and biliary senescence in Mdr2−/− mice (CK-19 IHC, p16 IF, qPCR); assay type: in vivo, mouse; conditions: 20 mg/kg IP
Description: (§1) Animal procedures were performed according to protocols approved by Indiana University School of Medicine Institutional Animal Care and Use Committee. […] Male Mdr2^−/− mice (n = 8) were collected at twelve-weeks for PSC model. Twelve-week-old male Friend Virus B NIH Jackson (FVB/NJ [FVB/wild type (WT) control], n = 8) mice were used as control WT for Mdr2^−/−.
(§2) In all groups, serum, liver, cholangiocytes, and cholangiocyte supernatants were collected as described ([18], [19]). The collected liver was divided into three portions: (i) snap-frozen tissue; (ii) OCT-embedded blocks (5 μm cryosections) for immunofluorescence (IF); and (iii) formalin-fixed, paraffin-embedded (FFPE) blocks (4 μm sections) for immunohistochemistry (IHC).
Ductular reaction was evaluated in FFPE mouse liver sections by IHC for CK-19 to specifically mark bile ducts. Stained slides were scanned by a digital scanner (Aperio AT2 scanner; Leica Biosystems). CK-19-positive area was quantified using the Image-Pro Premier software (Rockville, MD). Biliary senescence was evaluated by: (i) IF for p16 expression in frozen liver sections co-stained with CK-19 (to mark bile ducts) and (ii) mRNA expression of cellular senescence markers, cyclin dependent kinase inhibitor 2a (Cdkn2a; gene for p16), cyclin dependent kinase inhibitor 2c (Cdkn2c, gene for p18) and galactosidase, beta 1-like (Glb1l) in isolated mouse cholangiocytes ([3], [19]).
(§3) Since we found increased chymase levels in human PSC livers, we evaluated the pharmacological inhibition of chymase in modulating PSC in Mdr2^−/− mice. […] All treatment groups were compared to Mdr2^−/− mice.

[2] = design: method as in earlier work; conditions: Phase 2 clinical trial, atopic dermatitis; cited from earlier work
[3] = test system: Mdr2−/− mice (model of PSC); test: Liver fibrosis in Mdr2−/− mice (FG/SR, hydroxyproline, desmin IF, qPCR); assay type: in vivo, mouse
Description: as §1, §2
Collagen deposition was determined by Fast Green/Sirius Red staining in FFPE mouse liver sections and quantified by the Image-Pro Premier software (Rockville, MD). Liver fibrosis was also determined by measuring hydroxyproline levels in total liver samples using the hydroxyproline assay kit (MAK008-1KT; Millipore Sigma, Billerica, MA). To detect activated HSCs, IF for desmin (co-stained with CK-19) was performed in frozen liver sections with semi-quantification ([20], [21]). The mRNA expression of the fibrosis markers, collagen type I alpha 1 (Col1a1) and tissue inhibitor of metalloproteinases 2 (Timp2) and transforming growth factor beta 1 (Tgfb1) was measured in total mouse livers by qPCR.
as §3

[4] = test system: Mdr2−/− mice (model of PSC); test: MC infiltration and activation in liver of Mdr2−/− mice (IHC, qPCR); assay type: in vivo, mouse; conditions: 20 mg/kg IP daily, 2 weeks
Description: as §1, §2
(§4) Liver inflammation was evaluated by IHC for F4/80 in FFPE mouse liver sections, and positive cells were quantified by Image-Pro Premier software (Rockville, MD). Liver MC infiltration was detected with IHC for tryptase β-2 (Tpsb2) and mucosal MC chymase-1 (mMCP1) in liver sections. MCs were semi-quantified as Tpsb2 or mMCP1 positivite cell number/total area with Image-Pro Premier software (Rockville, MD). MC activation was determined by qPCR for Fc fragment of IgE, high affinity I, receptor for alpha polypeptide (Fcer1a), Mcpt1 and Tpsb2 in total liver samples.
as §3

[5] = test system: Mdr2−/− mice (model of PSC); test: Liver damage, bile acids and inflammation in Mdr2−/− mice (H&E, TBA kit, F4/80 IHC); assay type: in vivo, mouse; conditions: 20 mg/kg IP daily, 2 weeks
Description: as §1, §2
Liver damage was assessed by hematoxylin and eosin (H&E) staining in FFPE mouse liver sections and scored in a coded fashion to determine portal inflammation. Serum and liver total bile acids (TBAs) were determined using a TBA Assay Kit (Colorimetric, Sigma-Aldrich).
as §4, §3

[6] = test system: Mdr2−/− mice (model of PSC); design: method as in PMID 10711453; conditions: cited from earlier work
[7] = 20 mg/kg IP daily, 2 weeks, qPCR total liver
[8] = 20 mg/kg IP daily, 2 weeks, vs untreated mice
[9] = male Mdr2−/− mice, vs untreated Mdr2−/−, qPCR total liver

In the case of `CCC[C@@H](NC(=O)N1CC(=NOCC)NC[C@H](Cc2cc(Cl)ccc2OC)C1=O)c1ccc(C(=O)O)c(N)c1` [INVA8001], the “efficacy in a model of aortic aneurysm” value (aortic aneurysm model) is given as “effective”, the “p16 immunoreactivity in liver” value ([1]; IF co-stained with CK-19) is given as “reduced” and the “bile duct mass (CK-19-positive bile ducts)” value ([1]; IHC) is given as “significant reduction”. For the same compound, the “Cdkn2a expression in isolated cholangiocytes” value ([1]; qPCR isolated cholangiocytes) was “reduced”, the “Cdkn2c expression in isolated cholangiocytes” value ([1]; qPCR isolated cholangiocytes) was “reduced” and the “Glb1l expression in isolated cholangiocytes” value ([1]; qPCR isolated cholangiocytes) was “reduced”. The “Tgfb1 expression in isolated cholangiocytes” value ([1]; qPCR isolated cholangiocytes) was “reduced”, the “Cdkn2a mRNA expression in total liver” value ([1]; qPCR total liver) was “reduced” and the “safety and tolerability, adverse effects” value [2] was “no significant adverse effects reported”. The “Col1a1 gene expression in liver” value [3, 7] was “significantly reduced”, the “Tgfb1 gene expression in liver” value [3, 7] was “significantly reduced” and the “Timp2 gene expression in liver” value [3, 7] was “significantly reduced”. For the same compound, the “hepatic fibrosis, FG/SR staining” value [3, 8] was “decreased”, the liver hydroxyproline content [3, 8] was “lowered” and the “desmin immunoreactivity (HSC activation)” value ([3]; 20 mg/kg IP, IF liver sections) was “significantly reduced”. The “number of chymase (mMCP1)-positive cells in liver” value ([4]; Mdr2−/− mice, IHC) was “significant reduction”, the “number of tryptase (Tpsb2)-positive cells in liver” value ([4]; Mdr2−/− mice, IHC) was “significant reduction” and the “Fcer1a mRNA expression in liver” value [4, 9] was “attenuated”. The “Mcpt1 mRNA expression in liver” value [4, 9] was “attenuated”, the “Tpsb2 mRNA expression in liver” value [4, 9] was “decreasing trend (not statistically significant)” and the “histological damage (H&E)” value [5] was “amelioration”. The “portal inflammation (H&E)” value [5] was “amelioration”, the liver enzymes ([5]; data not shown) was “no significant changes” and the “hepatic total bile acid (TBA) accumulation” value ([5]; liver tissue) was “significant reduction”. For the same compound, the “number of infiltrating macrophages (F4/80 staining)” value ([5]; portal tracts, IHC) was “significantly reduced” and the “serum total bile acid (TBA) accumulation” value ([5]; serum) was “significant reduction”.

For `O=C(O)c1cc(=O)c2c(OCC(O)COc3cccc4oc(C(=O)O)cc(=O)c34)cccc2o1` [cromolyn sodium], the “levels of MC mediators, inflammation, tissue damage, and fibrosis” value [6] is given as “attenuates”.
